Source: patent US10858362B2, “Imidazopyrazinones as PDE1 inhibitors” (H. Lundbeck A/S, priority 2015, dated 2020)

What was measured:
Format in all cases: biochemical
PDE9 = PDE9 (Homo sapiens (Human), UniProt O76083); test: PDE9 inhibition assay
Procedure: A PDE9 assay may for example, be performed as follows: The assay is performed in 60 μL samples containing a fixed amount of the relevant PDE enzyme (sufficient to convert 20-25% of the cyclic nucleotide substrate), a buffer (50 mM HEPES7.6; 10 mM MgCl2; 0.02% Tween20), 0.1 mg/ml BSA, 225 pCi of ^3H-labelled cyclic nucleotide substrate, tritium labeled cAMP to a final concentration of 5 nM and varying amounts of inhibitors. Reactions are initiated by addition of the cyclic nucleotide substrate, and reactions are allowed to proceed for one hr at room temperature before being terminated through mixing with 15 μL 8 mg/mL yttrium silicate SPA beads (Amersham). The beads are allowed to settle for one hr in the dark before the plates are counted in a Wallac 1450 Microbeta counter.
In the context of the present invention the assay was performed in 60 μL assay buffer (50 mM HEPES pH 7.6; 10 mM MgCl2; 0.02% Tween20) containing enough PDE9 to convert 20-25% of 10 nM ^3H-cAMP and varying amounts of inhibitors. Following a 1 hr incubation the reactions were terminated by addition of 15 μL 8 mg/mL yttrium silicate SPA beads (Amersham). The beads were allowed to settle for one hr in the dark before the plates were counted in a Wallac 1450 Microbeta counter.

PDE1B = PDE1B (Homo sapiens (Human), UniProt Q01064); test: PDE1 inhibition assay, PDE1B; settings: for IC50: 15 nM tritium labelled cAMP; for inhibition at 10 µM: read-out: PDE1B, % inhibition (at 10 μM)
Chain of PDE1B (Q01064 whole entry): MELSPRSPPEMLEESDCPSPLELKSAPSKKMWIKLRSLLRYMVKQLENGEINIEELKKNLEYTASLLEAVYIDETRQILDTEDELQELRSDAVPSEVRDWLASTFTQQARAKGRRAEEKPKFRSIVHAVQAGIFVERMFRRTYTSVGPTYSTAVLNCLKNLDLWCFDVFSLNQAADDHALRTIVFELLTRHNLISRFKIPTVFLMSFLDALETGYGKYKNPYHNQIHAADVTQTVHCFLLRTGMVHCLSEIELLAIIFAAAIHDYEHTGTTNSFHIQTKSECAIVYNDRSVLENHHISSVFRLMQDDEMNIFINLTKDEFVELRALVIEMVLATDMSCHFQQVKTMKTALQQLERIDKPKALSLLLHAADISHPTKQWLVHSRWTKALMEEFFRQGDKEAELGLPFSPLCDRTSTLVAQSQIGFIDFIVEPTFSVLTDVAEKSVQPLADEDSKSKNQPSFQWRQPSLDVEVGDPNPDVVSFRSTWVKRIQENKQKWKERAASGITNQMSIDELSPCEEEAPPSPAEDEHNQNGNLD
Procedure: (§1) Reactions were initiated by addition of the cyclic nucleotide substrate, and reactions were allowed to proceed for 1 h at room temperature before being terminated through mixing with 20 μL (0.2 mg) yttrium silicate SPA beads (PerkinElmer). The beads were allowed to settle for 1 h in the dark before the plates were counted in a Wallac 1450 Microbeta counter.

PDE1A = PDE1A (Homo sapiens (Human), UniProt P54750); test: PDE1 inhibition assay, PDE1A; settings: for IC50: 15 nM tritium labelled cAMP; for inhibition at 10 µM: read-out: PDE1A, % inhibition (at 10 μM)
Chain of PDE1A (P54750 whole entry): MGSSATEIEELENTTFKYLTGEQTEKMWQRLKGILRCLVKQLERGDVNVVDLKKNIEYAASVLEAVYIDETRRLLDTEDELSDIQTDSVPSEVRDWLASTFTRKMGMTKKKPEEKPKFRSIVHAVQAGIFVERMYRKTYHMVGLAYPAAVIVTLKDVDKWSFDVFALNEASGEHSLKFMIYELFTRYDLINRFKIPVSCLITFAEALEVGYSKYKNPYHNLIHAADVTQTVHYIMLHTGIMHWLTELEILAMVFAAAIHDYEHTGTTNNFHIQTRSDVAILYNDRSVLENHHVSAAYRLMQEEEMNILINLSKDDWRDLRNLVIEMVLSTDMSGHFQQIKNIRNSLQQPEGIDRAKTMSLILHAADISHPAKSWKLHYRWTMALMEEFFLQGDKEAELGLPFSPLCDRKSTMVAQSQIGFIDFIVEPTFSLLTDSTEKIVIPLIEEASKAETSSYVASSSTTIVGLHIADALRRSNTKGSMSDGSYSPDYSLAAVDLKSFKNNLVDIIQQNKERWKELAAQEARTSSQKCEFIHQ
Procedure: Reactions were initiated by addition of the cyclic nucleotide substrate, and reactions were allowed to proceed for 1 h at room temperature before being terminated through mixing with 20 μL (0.2 mg) yttrium silicate SPA beads (PerkinElmer).

PDE1C = PDE1C (Homo sapiens (Human), UniProt Q14123); test: PDE1 inhibition assay, PDE1C; settings: for IC50: 15 nM tritium labelled cAMP
Chain of PDE1C (Q14123 whole entry): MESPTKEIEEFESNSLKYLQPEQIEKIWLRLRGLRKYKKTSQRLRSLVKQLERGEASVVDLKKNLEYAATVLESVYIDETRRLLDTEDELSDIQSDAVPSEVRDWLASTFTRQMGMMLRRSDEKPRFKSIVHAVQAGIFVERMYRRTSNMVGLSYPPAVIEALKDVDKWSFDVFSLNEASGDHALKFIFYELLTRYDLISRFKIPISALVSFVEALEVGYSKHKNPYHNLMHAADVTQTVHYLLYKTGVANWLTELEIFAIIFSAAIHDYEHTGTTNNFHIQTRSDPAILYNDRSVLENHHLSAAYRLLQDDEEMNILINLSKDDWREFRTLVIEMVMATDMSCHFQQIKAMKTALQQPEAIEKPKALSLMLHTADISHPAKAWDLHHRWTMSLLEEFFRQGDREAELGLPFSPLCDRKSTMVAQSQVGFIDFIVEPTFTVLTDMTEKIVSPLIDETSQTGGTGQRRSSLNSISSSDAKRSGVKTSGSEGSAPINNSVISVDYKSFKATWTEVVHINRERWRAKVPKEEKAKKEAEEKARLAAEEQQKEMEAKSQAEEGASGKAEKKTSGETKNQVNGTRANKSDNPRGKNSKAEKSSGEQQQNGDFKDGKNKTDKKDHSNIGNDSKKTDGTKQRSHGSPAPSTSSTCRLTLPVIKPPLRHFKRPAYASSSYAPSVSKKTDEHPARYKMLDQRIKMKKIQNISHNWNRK
Procedure: as §1

Chain of PDE9 (O76083 whole entry): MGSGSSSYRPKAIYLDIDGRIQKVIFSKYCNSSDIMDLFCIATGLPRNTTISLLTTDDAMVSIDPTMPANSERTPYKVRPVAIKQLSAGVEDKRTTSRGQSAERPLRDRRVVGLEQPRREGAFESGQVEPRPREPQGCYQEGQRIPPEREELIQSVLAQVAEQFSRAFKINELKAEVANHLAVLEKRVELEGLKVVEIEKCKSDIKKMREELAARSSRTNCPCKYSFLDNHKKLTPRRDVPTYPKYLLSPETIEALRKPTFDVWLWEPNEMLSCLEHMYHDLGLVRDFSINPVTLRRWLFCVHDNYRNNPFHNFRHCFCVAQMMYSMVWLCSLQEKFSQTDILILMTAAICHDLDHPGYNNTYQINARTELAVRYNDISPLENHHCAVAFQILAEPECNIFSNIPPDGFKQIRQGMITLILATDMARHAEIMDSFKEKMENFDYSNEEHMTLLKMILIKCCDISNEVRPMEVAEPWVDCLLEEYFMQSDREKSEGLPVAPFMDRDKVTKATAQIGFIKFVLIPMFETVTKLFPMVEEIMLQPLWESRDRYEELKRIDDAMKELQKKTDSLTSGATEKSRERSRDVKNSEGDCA

Compound | inhibition at 10 µM (PDE9) [%] | IC50 (PDE1B) [nM] | IC50 (PDE1A) [nM] | IC50 (PDE1C) [nM] | also measured
Cc1nc(Cn2c(C)cn3c(C4CCOCC4)ncc3c2=O)cs1 [Example 78, 6-methyl-7-((2-methylthiazol-4-yl)methyl)-3-(tetrahydro-2H-pyran-4-yl)imidazo[1,5-a]pyrazin-8(7H)-one] | 6 | 641 | 1690 | 251 | 
Cc1cn2c(C3(C#N)CCOCC3)ncc2c(=O)n1Cc1cccc(F)c1 [Example 27, 4-(7-(3-fluorobenzyl)-6-methyl-8-oxo-7,8-dihydroimidazo[1,5-a]pyrazin-3-yl)tetrahydro-2H-pyran-4-carbonitrile] | 5 | 699 | 603 | 103 | 
Cc1cn2c(C3CCOCC3)ncc2c(=O)n1Cc1ccc(OC(F)F)cc1 [Example 40, 7-(4-(difluoromethoxy)benzyl)-6-methyl-3-(tetrahydro-2H-pyran-4-yl)imidazo[1,5-a]pyrazin-8(7H)-one] | -25 | 27 | 73 | 52 | 
Cc1cn2c([C@H]3CCCOC3)ncc2c(=O)n1Cc1cccc(F)c1 (single isomer, unassigned; isomer 2) [100, isomer 2] |  | 93 | 333 | 33 | % inhibition of PDE9 at 10 microM (PDE9): −21%
CCCn1c(C)cn2c(C3CCOCC3)ncc2c1=O [Example 60, 6-methyl-7-propyl-3-(tetrahydro-2H-pyran-4-yl)imidazo[1,5-a]pyrazin-8(7H)-one] | -13 | 221 | 810 | 423 | 
Cc1cn2c([C@H]3C[C@H]3C)ncc2c(=O)n1Cc1cccc(F)c1 (single isomer, unassigned; isomer 4) [35, isomer 4] |  | 360 |  | 85 | % inhibition of PDE9 at 10 microM (PDE9): 5%; PDE1A, % inhibition (at 1 μM) (PDE1A): 43%
Cc1noc(C)c1Cn1c(C)cn2c(C3CCOCC3)ncc2c1=O [Example 81, 7-((3,5-dimethylisoxazol-4-yl)methyl)-6-methyl-3-(tetrahydro-2H-pyran-4-yl)imidazo[1,5-a]pyrazin-8(7H)-one] | 36 |  |  | 2300 | inhibition at 10 µM (PDE1B): 36%; inhibition at 10 µM (PDE1A): 27%
Cc1cn2c([C@H]3C[C@@H]3C)ncc2c(=O)n1Cc1cccc(F)c1 (single isomer, unassigned; isomer 3) [35, isomer 3] |  | 18 | 82 | 8 | % inhibition of PDE9 at 10 microM (PDE9): 0%
COc1ccc(Cn2c(C)cn3c(C(C)c4nc(C)cs4)ncc3c2=O)cc1 (stereo not drawn) [Example 90, 7-(4-methoxybenzyl)-6-methyl-3-(1-(4-methylthiazol-2-yl)ethyl)imidazo[1,5-a]pyrazin-8(7H)-one] | 10 | 15 | 34 | 23 | 
CCn1c(C)cn2c(C3CCOCC3)ncc2c1=O [Example 59, 7-ethyl-6-methyl-3-(tetrahydro-2H-pyran-4-yl)imidazo[1,5-a]pyrazin-8(7H)-one] | -13 | 496 | 2330 | 1740 | 
Cc1cn2c(C3CCOCC3)ncc2c(=O)n1CC1CCCC1 [Example 63, 7-(cyclopentylmethyl)-6-methyl-3-(tetrahydro-2H-pyran-4-yl)imidazo[1,5-a]pyrazin-8(7H)-one] | -3 | 82 | 183 | 17 | 
Cc1cn2c(C3CCOCC3)ncc2c(=O)n1Cc1ccc(OC2CC2)cc1 [Example 39, 7-(4-cyclopropoxybenzyl)-6-methyl-3-(tetrahydro-2H-pyran-4-yl)imidazo[1,5-a]pyrazin-8(7H)-one] | 23 | 118 | 413 | 364 | 
COc1ccc(Cn2c(CC3CCCC3)cn3c(C4CCOCC4)ncc3c2=O)cc1 [Example 92, 6-(cyclopentylmethyl)-7-(4-methoxybenzyl)-3-(tetrahydro-2H-pyran-4-yl)imidazo[1,5-a]pyrazin-8(7H)-one] | 57 | 11 | 71 | 79 | 
O=c1c2cnc(C3CC3)n2ccn1CC1CCCC1 [Example 7, 7-(Cyclopentylmethyl)-3-cyclopropylimidazo[1,5-a]pyrazin-8(7H)-one] | 1 |  |  | 230 | inhibition at 2 µM (PDE1B; read-out: PDE1B, % inhibition (at 2 μM)): 85%; inhibition at 2 µM (PDE1A; read-out: PDE1A, % inhibition (at 2 μM)): 60%
Cc1cn2c([C@]3(C)CCOC3)ncc2c(=O)n1Cc1cccc(F)c1 (single isomer, unassigned; isomer 1) [32, isomer 1] |  | 122 | 257 | 22 | % inhibition of PDE9 at 10 microM (PDE9): −1%
COCC(C)(C)c1ncc2c(=O)n(Cc3ccc(OC)cc3)c(C)cn12 [Example 76, 3-(1-methoxy-2-methylpropan-2-yl)-7-(4-methoxybenzyl)-6-methylimidazo[1,5-a]pyrazin-8(7H)-one] | -14 | 44 | 122 | 126 | 
COc1ccc(Cn2c(C)cn3c([C@@H](C)c4ccccc4)ncc3c2=O)cc1 [Example 71, (S)-7-(4-methoxybenzyl)-6-methyl-3-(1-phenylethyl)imidazo[1,5-a]pyrazin-8(7H)-one] | 13 | 238 | 211 | 538 | 
Cc1cn2c([C@H]3CCCCO3)ncc2c(=O)n1Cc1cccc(F)c1 (single isomer, unassigned; isomer 2) [30, isomer 2] |  |  |  | 215 | % inhibition of PDE9 at 10 microM (PDE9): 28%; PDE1B, % inhibition (at 1 μM) (PDE1B; at 1 μM): 40%; PDE1A, % inhibition (at 1 μM) (PDE1A): 27%
COc1ccc(Cn2c(C)cn3c(C(C)(C)O)ncc3c2=O)cc1 [Example 86, 3-(2-hydroxypropan-2-yl)-7-(4-methoxybenzyl)-6-methylimidazo[1,5-a]pyrazin-8(7H)-one] | -11 | 118 | 193 | 214 | 
COC1(c2ncc3c(=O)n(Cc4cccc(F)c4)c(C)cn23)CCOCC1 [Example 28, 7-(3-fluorobenzyl)-3-(4-methoxytetrahydro-2H-pyran-4-yl)-6-methylimidazo[1,5-a]pyrazin-8(7H)-one] | 13 | 737 | 663 | 72 | 
COc1ccc(Cn2c(C)cn3c(N4CCOCC4)ncc3c2=O)cc1 [Example 93, 3-(morpholino)-7-(4-methoxybenzyl)-6-methylimidazo[1,5-a]pyrazin-8(7H)-one] | 23 | 52 | 96 | 99 | 
Cc1cn2c(C3CCOCC3)ncc2c(=O)n1C(C)C [Example 61, 7-isopropyl-6-methyl-3-(tetrahydro-2H-pyran-4-yl)imidazo[1,5-a]pyrazin-8(7H)-one] | 4 |  |  |  | inhibition at 10 µM (PDE1B): 50%; inhibition at 10 µM (PDE1A): 4%; inhibition at 10 µM (PDE1C; read-out: PDE1C, % inhibition (at 10 μM)): 47%
CCCc1ncc2c(=O)n(Cc3cccc(F)c3)ccn12 [Example 1, 7-(3-Fluorobenzyl)-3-propylimidazo[1,5-a]pyrazin-8(7H)-one] | -12 | 790 | 801 | 300 | 
CCCc1ncc2c(=O)n(Cc3ccc(OC)cc3)c(C)cn12 [Example 56, 7-(4-methoxybenzyl)-6-methyl-3-propylimidazo[1,5-a]pyrazin-8(7H)-one] | 7 | 21 | 65 | 43 | 
Cc1cn2c([C@@H]3C[C@H]3C)ncc2c(=O)n1Cc1cccc(F)c1 (single isomer, unassigned; isomer 2) [35, isomer 2] |  | 166 | 364 | 41 | % inhibition of PDE9 at 10 microM (PDE9): 15%
COc1ccc(Cn2c(C)cn3c(C4(C)CCN(S(N)(=O)=O)C4)ncc3c2=O)cc1 (stereo not drawn) [Example 91, 3-(7-(4-methoxybenzyl)-6-methyl-8-oxo-7,8-dihydroimidazo[1,5-a]pyrazin-3-yl)-3-methylpyrrolidine-1-sulfonamide] | 20 | 185 | 181 | 417 | 
COc1ccc(Cn2c(C)cn3c(N4CCOC(C)(C)C4)ncc3c2=O)cc1 [Example 98, 3-(2,2-dimethylmorpholino)-7-(4-methoxybenzyl)-6-methylimidazo[1,5-a]pyrazin-8(7H)-one] | 4 | 102 | 287 | 135 | 
